These results are taken from ChEMBL document CHEMBL1149239, “Synthesis and pharmacological evaluation of piperidinoalkanoyl-1,2,3,4-tetrahydroisoquinoline derivatives as novel specific bradycardic agents” (2004).

What all share (format): functional
The species entered for assay [1] is Cavia porcellus. Briefly: Concentration required to produce 30% reduction from the initial beat rates in isolated guinea pig right atria.
Assay [2] relates to Rattus norvegicus. Briefly: Reduction of spontaneous sinus heart rate (HR) when […] in conscious rats; Reduced from -5.28 to -20.0 beats/min.
For assay [3], the system named is Rattus norvegicus. The assay is described as follows: Reduction of mean blood pressure (MBP) when […] in conscious rats; Reduced from 2.12 to 2.0 mmHg.
Assay [4] deals with Rattus norvegicus. The assay is described as follows: Reduction of spontaneous sinus heart rate (HR) when […] in conscious rats; Reduced from -23.5 to -87.8 beats/min.

The term EC30 denotes the point of the concentration-response curve where the effect stands at 30%.

Molecule `COc1cc2c(cc1OC)CN(C(=O)CCN1CCCC(Oc3ccc4c(c3)OCO4)C1)CC2` (stereo not given) gave an EC30 in assay [1] of 3030 nM.

On to `COc1cc2c(cc1OC)CN(C(=O)CCN1CCCC(COc3ccc4c(c3)OCO4)C1)CC2` (stereo not given), for which the EC30 in assay [1] was determined as 170 nM. `COc1cc2c(cc1OC)CN(C(=O)CCN1CCC(CCOc3ccc4c(c3)OCO4)CC1)CC2`: in assay [1], the EC30 amounted to 450 nM.

For `COc1cc2c(cc1OC)CN(C(=O)CCN1CCCC(CCCOc3ccc4c(c3)OCO4)C1)CC2` (stereo not given), the EC30 in assay [1] is 390 nM. Still for that read-out and setting: the same measure for `COc1cc2c(cc1OC)CN(C(=O)C1CCCN(CCCOc3ccc4c(c3)OCO4)C1)CC2` (stereo not given): 370 nM; for `COc1cc2c(cc1OC)CN(C(=O)CN1CCCC(COc3ccc4c(c3)OCO4)C1)CC2` (stereo not given): 1170 nM; for `COc1cc2c(cc1OC)CN(C(=O)CCN1CCCC(CCOc3ccc4c(c3)OCO4)C1)CC2` (stereo not given): 340 nM. The same measure, in the same setting: the same measure for `COc1cc2c(cc1OC)CN(C(=O)CCN1CCC(CCCOc3ccc4c(c3)OCO4)CC1)CC2`: 620 nM. Consider `COc1cc2c(cc1OC)CN(C(=O)CCN1CCC(COc3ccc4c(c3)OCO4)CC1)CC2`, for which the Heart rate in assay [2] is -20 beats min-1. This molecule returned an EC30 in assay [1] of 470 nM. In the case of `COc1cc2c(cc1OC)CN(C(=O)CCCN1CCCC(COc3ccc4c(c3)OCO4)C1)CC2` (stereo not given), in assay [1], the EC30 was 850 nM. The same measure, in the same setting: the same measure for `COc1ccc(CCN(C)CCCN2CCc3cc(OC)c(OC)cc3CC2=O)cc1OC` [ZATEBRADINE]: 260 nM.

For `COc1cc2c(cc1OC)CN(C(=O)CCN1CCC(Oc3ccc4c(c3)OCO4)CC1)CC2`, in assay [3], the MBP was found to be 2 mmHg. In assay [1], this molecule displayed an EC30 of 440 nM. The Heart rate in assay [4] is -87.8 beats min-1.
